This note sets out measurements from publication PMC3998017, “Single cell imaging of Bruton's Tyrosine Kinase using an irreversible inhibitor” (Scientific Reports, 2014).

The structures appear in SMILES notation.

The assay deals with T1, Bruton's tyrosine kinase (BTK) (Homo sapiens, UniProt Q06187).
T1 construct: purified BTK (76 kDa)
The experiment in a line: IC50 on purified BTK enzyme; also covalent labelling of purified BTK and of BTK in Toledo cells by denaturing gel fluorescence, blocked by Ibrutinib. Format: biochemical.

T1 sequence (Q06187 2-659): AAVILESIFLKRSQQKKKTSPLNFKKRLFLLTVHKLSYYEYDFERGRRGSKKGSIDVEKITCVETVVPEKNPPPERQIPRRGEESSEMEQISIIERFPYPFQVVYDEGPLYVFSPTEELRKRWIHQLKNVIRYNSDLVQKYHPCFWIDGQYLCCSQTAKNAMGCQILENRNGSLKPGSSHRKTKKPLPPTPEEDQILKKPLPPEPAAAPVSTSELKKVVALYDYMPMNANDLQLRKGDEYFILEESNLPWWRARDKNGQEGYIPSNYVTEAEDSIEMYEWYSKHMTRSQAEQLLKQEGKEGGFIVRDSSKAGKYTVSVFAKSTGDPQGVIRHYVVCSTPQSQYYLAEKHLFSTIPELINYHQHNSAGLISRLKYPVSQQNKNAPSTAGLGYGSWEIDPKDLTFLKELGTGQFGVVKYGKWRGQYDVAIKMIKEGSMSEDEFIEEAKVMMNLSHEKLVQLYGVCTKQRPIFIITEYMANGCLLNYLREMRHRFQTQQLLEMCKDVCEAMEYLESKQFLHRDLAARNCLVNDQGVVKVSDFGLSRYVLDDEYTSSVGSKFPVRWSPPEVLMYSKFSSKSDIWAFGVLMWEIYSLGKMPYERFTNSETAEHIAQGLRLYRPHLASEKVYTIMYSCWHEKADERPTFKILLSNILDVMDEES

In general, IC50 refers to the point on the concentration scale where inhibition reaches its midpoint. Low readings indicate higher potency, high ones lower potency. On to `Cc1cc(C)n2c1C=C1C=CC(CCC(=O)NC/C=C/C(=O)N3CCC[C@@H](n4nc(-c5ccc(Oc6ccccc6)cc5)c5c(N)ncnc54)C3)=[N+]1[B-]2(F)F` [compound 7, (R,E)-3-(3-((4-(3-(4-amino-3-(4-phenoxyphenyl)-1H-pyrazolo[3,4-d]pyrimidin-1-yl)piperidin-1-yl)-4-oxobut-2-en-1-yl)amino)-3-oxopropyl)-5,5-difluoro-7,9-dimethyl-5H-dipyrrolo[1,2-c:2′,1′-f][1,3,2]diazaborinin-4-ium-5-uide], for which the concentration for half-maximal inhibition (IC50) was ~200 nM.
